Experimental data from US9671405B2, “Identifying taxane sensitivity in prostate cancer patients” (Cornell University, priority 2012, dated 2017).

Experiments:
Format in all cases: cell-based, human
leucocytes = test: On-chip ex-vivo taxane treatment, microtubule bundling in leucocytes present on the chip; conditions: FIG. 5F patient (patient 4), 50 nM paclitaxel ex-vivo on-chip
Description: FIG. 5A-5F illustrates on-chip assessment of effective drug-target engagement in viable GEDI-captured circulating tumor cells, and that tubulin responses to taxane treatment can be assessed in GEDI-captured cells. […] One ml of spiked blood was then passed through each of three GEDI devices. […] Following drug treatment, cells were fixed and processed for immunofluorescence staining using antibodies against tubulin and CD45. DAPI was used as a DNA counterstain to evaluate nuclear integrity. […] Following drug treatment, the PSMA-captured cells were fixed and processed for immunofluorescence staining as in FIG. 5A with the addition of cytokeratin-18 as an alternative epithelial marker. […]
For ex-vivo drug treatment experiments, the blood sample from each patient was divided and 1 ml was flown to each of three GEDI devices simultaneously. […] All circulating tumor cells (PSMA^+/CD45−/DAPI^+) were assessed for the presence of microtubule bundles as evidence of effective drug-target engagement. The percent of circulating tumor cells with evidence of microtubule bundling was calculated. In all samples analyzed, bundling was clearly apparent by the distinct shape, width, orientation and increased fluorescence intensity of microtubule bundles as compared with microtubules from untreated cells. […]

[1] = test system: GEDI-captured circulating tumor cells from castration-resistant prostate cancer patients; test: On-chip ex-vivo taxane treatment of GEDI-captured patient circulating tumor cells, microtubule bundling as drug-target engagement
Description: One ml of spiked blood was then passed through each of three GEDI devices. […] Following drug treatment, cells were fixed and processed for immunofluorescence staining using antibodies against tubulin and CD45. DAPI was used as a DNA counterstain to evaluate nuclear integrity. […] Following drug treatment, the PSMA-captured cells were fixed and processed for immunofluorescence staining as in FIG. 5A with the addition of cytokeratin-18 as an alternative epithelial marker.
For ex-vivo drug treatment experiments, the blood sample from each patient was divided and 1 ml was flown to each of three GEDI devices simultaneously. […] At the end of treatment, the GEDI-captured cells were fixed with PHEMO buffer and processed for multiplex confocal microscopy following immunostaining with different cell surface and cytoplasmic antibodies as indicated. […] The percent of circulating tumor cells with evidence of microtubule bundling was calculated. […] In addition, DAPI counterstain was used to assess the presence of mitotic or apoptotic nuclei following drug treatment.
The GEDI-captured circulating tumor cells were tested in situ (i.e., while in the GEDI device) to evaluate their chemosensitivity to taxanes, and predict a patient's clinical response to therapy. […] Microtubule bundling is the first event induced by taxane treatment, resulting in downstream mitotic arrest and apoptotic cell death, and is therefore an appropriate marker of efficient taxane drug-target engagement.

ARv7 = test: Nuclear localization of GFP-tagged ARv7 in M12 cells, confocal microscopy; conditions: 10 nM R1881 2 hr
Description: (§1) Cells were then fixed, immunostained for tubulin, and imaged for GFP-AR and tubulin by confocal microscopy. Androgen receptor is shown as lighter staining (green in the original), while tubulin staining is darker but visible as lighter areas in the images (red in the original). Representative, high-magnification images from each condition are shown. […] Scale bar: 10 μm. FIG. 9D is a bar graph depicting the ratio of cells with nuclear androgen receptor over those with cytoplasmic androgen receptor for each condition. […] Relative mRNA expression of TMPRSS2 and FKBP51 was assessed by qPCR. Values were corrected to GAPDH and normalized to untreated M12 cells expressing control lentivirus (M12 lenti). […] Androgen receptor protein expression was detected by staining with anti-androgen receptor or anti-ARN-21 antibodies. […] Cells were then fixed, immunostained for tubulin, and imaged for GFP-AR and tubulin by confocal microscopy. […]
(§2) In addition, M12 cells stably expressing GFP-tagged AR-wt, AR or variants were generated in Or Giannakakou's laboratory. GFP^+ cells from all three androgen receptor cell lines were sorted using fluorescence activated cell sorting (FACS) on a BD FACSAria II cell sorter (BD Biosciences, Franklin Lakes, N.J., USA) and subsequently expanded in media containing G418 ([…]). […]

ARv5,6,7 = test: Nuclear localization of GFP-tagged ARv5,6,7 in M12 cells, confocal microscopy; conditions: 10 nM R1881 2 h
Description: as §1, §2

With `CC(=O)O[C@H]1C(=O)[C@@]2(C)[C@H]([C@H](OC(=O)c3ccccc3)[C@]3(O)C[C@H](OC(=O)[C@H](O)[C@@H](NC(=O)c4ccccc4)c4ccccc4)C(C)=C1C3(C)C)[C@]1(OC(C)=O)CO[C@@H]1C[C@@H]2O` [paclitaxel] as the compound, how does the “leucocytes present on the chip showing microtubule bundling” value (leucocytes) read?
The value was about 100%.

And the “microtubule bundling of circulating tumor cells” value ([1]; patient 2, 100 nM or 1 uM paclitaxel ex-vivo on-chip)?
Its value is “display microtubule bundling”.

What about the “response of circulating tumor cells to drug treatment” value ([1]; patient 4, 50 nM paclitaxel ex-vivo on-chip) of the same compound?
The value was “heterogeneous response”.

And the “apoptotic nuclei in circulating tumor cells” value ([1]; patient docetaxel progressor on cabazitaxel, ex vivo 24 hr)?
Its value is “exhibited apoptotic nuclei”.

And the “effect on microtubule cytoskeleton of captured circulating tumor cells” value ([1]; patient of FIG. 5B (docetaxel progressor), 100 nM ex vivo, 24 hr)?
The value was “clear evidence of microtubule bundling”.

What about the “mitotic arrest of captured circulating tumor cells” value ([1]; same patient as FIG. 5B (FIG. 5C), ex vivo 24 hr) of the same compound?
The value was “signs of aberrant mitotic arrest”.

With `C[C@]1(O)CC[C@H]2[C@@H]3CCC4=CC(=O)CCC4=C3C=C[C@@]21C` [R1881, Methyltrienolone] as the compound, how does the “nuclear accumulation of ARv7 induced by R1881” value (ARv7) read?
Its value is “does not increase nuclear accumulation”.

What about the “nuclear accumulation of ARv5,6,7 induced by R1881” value (ARv5,6,7) of the same compound?
Its value is “did not induce any further nuclear accumulation”.
